What all share (test): DTP human tumour cell line panel, 48 h
Test [1] has as its system BT-549 breast.
Test [2] concerns EKVX NSCLC.
For test [3], the system named is HS 578T breast.
In test [4] the test system is K-562 leukemia.
Test [5] deals with KM12 colon.
For test [6], the system named is MALME-3M melanoma.
For test [7], the system named is NCI-H226 lung.
Test [8] concerns NCI-H460 lung.
The subject of test [9] is SF-295 CNS.
Test [10] relates to SK-MEL-28 melanoma.

“And” between values parts separate entries of the source, which are not always exact repeats. Equal entries are not always repeated.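 Five compound concentrations were applied to cells in 96-well plates for 48 hours; endpoints were derived by simple linear interpolation of the resulting dose-response curve. GI50 = concentration required for 50% inhibition of growth. At the TGI there is no net growth.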

With `COc1ccc(NC2=C(Sc3nc(C)cc(C)n3)C(=O)N(Cc3ccccc3)C2=O)cc1Cl`, the GI50 in [1] was 89.5 µM; in [2], 157 µM; in [3], 67.9 µM; in test [4] it was greater than 160 µM; in [5], greater than 160 µM; in test [6], greater than 160 µM. The GI50 in [7] is 39.5 µM; in test [8], greater than 160 µM; in [9], 74.9 µM; in test [10], greater than 160 µM. Further, the TGI in test [1], in [2], in [3], in [4], in [5] and in test [6] was greater than 160 µM each time. The total growth inhibition concentration (TGI) in test [7], in test [8], in test [9] and in test [10] was greater than 160 µM each time.

Consider `COc1cc(N2CCC(N(C)C)CC2)ccc1Nc1ncc(Cl)c(Nc2ccccc2P(C)(C)=O)n1`, for which the GI50 in test [1] was 2.98 µM and 0.791 µM; in test [2], 0.344 µM; in test [3] it was 1.83 µM and 0.496 µM; in test [7] it was 0.454 µM and 0.0582 µM; in test [8], 1.92 µM and 0.385 µM; in test [9], 1.81 µM and 0.409 µM. Moreover, in test [10], the GI50 was 6.44 µM and 1.31 µM. Moreover, the TGI is 9.97 µM and 4.35 µM in test [1]; greater than 7.38 µM in [2]; 8.27 µM and 2.21 µM in test [3]; greater than 100 µM in test [4]; greater than 30 µM in test [5]; 31.7 µM and > 7.77 µM in [6]. Moreover, the TGI is 2.76 µM and 4.21 µM in test [7]; 12.9 µM and > 3.67 µM in test [8]; 15.8 µM and > 5.44 µM in [9]; 37 µM and > 7.34 µM in test [10].

With `N#Cc1nc(-c2cccc(Br)c2)cc(-c2ccc(Nc3nc(N4CCCCC4)nc(N4CCCCC4)n3)cc2)c1N`, the GI50 in test [1] is 2.02 µM; in test [2], 2.12 µM; in test [3], 2.1 µM; in test [4] it was 2.07 µM; in test [5] it was 1.91 µM; in [6] it was 1.68 µM. The GI50 in test [7] is 1.85 µM; in test [8], 1.85 µM; in test [9], 2.72 µM; in test [10], 1.83 µM. Besides, the TGI in test [1] is 4.36 µM; in test [2] it was 5.02 µM; in test [3], 5.29 µM; in test [4] it was greater than 100 µM; in [5], 3.91 µM; in test [6], 3.1 µM. In addition, the total growth inhibition concentration (TGI) stood at 3.94 µM in test [7], 3.8 µM in [8], 8.81 µM in [9] and 3.89 µM in test [10].

For `N#Cc1c(NC(=O)c2cccs2)[n+]([O-])c2ccccc2[n+]1[O-]`, the GI50 in test [1] was greater than 100 µM; in test [2], 93.8 µM; in [3], 95.9 µM; in test [4], greater than 100 µM; in [5] it was greater than 100 µM; in test [6], 96.2 µM. Further, the GI50 was 86.4 µM in test [7], greater than 100 µM in test [8], greater than 100 µM in [9] and greater than 100 µM in [10]. For the same compound, the total growth inhibition concentration (TGI) in [1], in test [2], in test [3], in test [4], in test [5] and in test [6] was greater than 100 µM throughout. Moreover, the TGI in test [7], in [8], in test [9] and in [10] was greater than 100 µM throughout.

Regarding `C[C@]12CC[C@H]3[C@@H](CCC4=CC(=O)CC[C@@H]43)[C@@H]1CC[C@@H]2OC1(O)C(=O)c2ccccc2C1=O`, the TGI is greater than 100 µM in test [1]; 2.79 µM in test [2]; greater than 100 µM in test [3]; greater than 100 µM in test [4]; greater than 100 µM in test [5]; greater than 100 µM in test [6]. Also, the total growth inhibition concentration (TGI) in test [7], in test [8], in [9] and in [10] was greater than 100 µM each time.

With `c1ccc(-c2nc(Nc3ccc(-c4nc5ccccc5[nH]4)cc3)nc(N3CCOCC3)n2)cc1`, the GI50 in test [1] was 1.98 µM; in test [2], 1.59 µM; in [3], 1.89 µM; in [4], 0.295 µM; in [5], 1.62 µM; in test [6], 2 µM. For the same compound, the GI50 is 2.4 µM in test [7], 0.822 µM in test [8], 1.25 µM in test [9] and 1.56 µM in test [10]. The concentration for total growth inhibition (TGI) in test [1] was 3.9 µM; in test [2] it was 3.42 µM; in [3], 6.04 µM; in [4] it was 0.959 µM; in test [5], 3.19 µM; in [6] it was 3.85 µM. The concentration for total growth inhibition (TGI) was 4.58 µM in test [7], 2.46 µM in [8], 2.84 µM in test [9] and 3.09 µM in [10].

For the compound `Cc1cccc2c3c(sc12)C(c1ccc(Cl)cc1)C(C#N)=C(/N=C/c1ccc(Cl)cc1)O3` (configuration not stated), the GI50 in test [1] is 1.38 µM; in [2] it was 0.565 µM; in test [3], 0.258 µM; in test [4] it was 0.281 µM; in test [5] it was 0.448 µM; in [6], 0.595 µM. Also, the GI50 in [7] was 0.75 µM; in [8], 0.425 µM; in test [9] it was 0.267 µM; in test [10], 4.73 µM. The total growth inhibition concentration (TGI) in test [1] is greater than 57.9 µM; in [2] it was greater than 100 µM; in test [3], 2.64 µM; in test [4] it was greater than 46.5 µM; in test [5] it was greater than 100 µM; in test [6], greater than 100 µM. Besides, the concentration for total growth inhibition (TGI) in test [7] was greater than 19.7 µM; in test [8], greater than 100 µM; in test [9] it was 2.37 µM; in test [10], greater than 100 µM.

With `S=C(Nc1ccccc1)c1ccccn1`, the GI50 in test [1] was 73.9 µM; in test [2] it was 42.9 µM; in test [3], greater than 100 µM; in test [4] it was 48.4 µM; in test [5], greater than 100 µM; in test [6], greater than 100 µM. Moreover, the GI50 was greater than 100 µM in [7], 63.2 µM in test [8], 32.8 µM in test [9] and greater than 100 µM in [10]. Also, the TGI in test [1], in test [2], in [3], in test [4], in [5] and in [6] was greater than 100 µM throughout. Besides, the TGI in [7], in [8], in test [9] and in test [10] was greater than 100 µM throughout.

With `C#Cc1cccc(NC(=O)Nc2ccc(NC(=O)CCl)cc2)c1`, the GI50 in test [1] was 11.9 µM; in test [2] it was greater than 82.5 µM; in test [3], 17.8 µM; in test [4], 15.5 µM; in test [5], 18.9 µM; in test [6], 12.1 µM. Further, the GI50 in test [7] is 22.4 µM; in [8], 22 µM; in test [9], greater than 82.5 µM; in test [10], greater than 82.5 µM. Also, the TGI in test [1] is 24.1 µM; in test [2], greater than 82.5 µM; in test [3] it was 81.7 µM; in test [4], 53.9 µM; in [5], 63.8 µM; in [6], 23.9 µM. Moreover, the concentration for total growth inhibition (TGI) was 73.9 µM in [7], greater than 82.5 µM in [8], greater than 82.5 µM in test [9] and greater than 82.5 µM in test [10].

Source of the values: PubChem BioAssay (NCI).
